In patent EP0883624B1, “TETRAETHER LIPIDS AND LIPOSOMES CONTAINING SAID LIPIDS, AND USE OF THE SAME” (Humatrix AG, priority 1996, dated 1997):

Assay: Capacitance of a black lipid membrane
Format: physicochemical
Settings: Porengröße von 0,8 mm
Source text: Das Überspannen von Poren mit einer Lipidschicht ermöglicht nicht nur Einsatz solcher Systeme bei Separations- und Transportvorgängen (Dialyse, Umkehrosmose etc.), sondern auch im Bereich von Piezo- und Pyroelektrik, Mikrokondensatortechnik, nicht-linearer Optik und Biosensorik. Die Kapazität einer stabilen Black-Lipid-Membran aus TEL ist bei einer Porengröße von 0,8 mm 0,744 µF/cm^2.

## 2,3,2',3'-Tetra-O-dibiphytanyl-di-sn-glycerol-1'-β-gulosyl-1-phosphoryl-3"-sn-glycerols [TEL]
  Kapazität einer stabilen Black-Lipid-Membran: 0,744 µF/cm^2
